For this assay, the target named is PAFR (Homo sapiens, UniProt P25105). Description: PAF Binding Assay (PAFR binding).
Sequence of PAFR (P25105 whole entry): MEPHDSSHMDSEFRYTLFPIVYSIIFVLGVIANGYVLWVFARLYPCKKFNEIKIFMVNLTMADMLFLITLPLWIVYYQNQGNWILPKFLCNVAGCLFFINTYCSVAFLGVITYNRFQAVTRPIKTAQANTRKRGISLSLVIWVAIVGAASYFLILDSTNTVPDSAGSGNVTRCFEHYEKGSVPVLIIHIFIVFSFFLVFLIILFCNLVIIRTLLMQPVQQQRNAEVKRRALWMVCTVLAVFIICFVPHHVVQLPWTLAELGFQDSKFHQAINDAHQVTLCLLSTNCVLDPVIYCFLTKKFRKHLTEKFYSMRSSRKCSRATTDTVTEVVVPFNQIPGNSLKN

The IC50 is the concentration that gives 50% inhibition. Read a high IC50 as a need for much substance. As for `CCCCOc1ccc(S(=O)(=O)N[C@H]2CCC[C@@H](n3cnnc3C)C2)c(F)c1` [Compound 2Ji, 4-butoxy-2-fluoro-N-[(1S,3R)-3-(3-methyl-4H-1,2,4-triazol-4-yl)cyclohexyl]benzenesulfonamide], the half-maximal inhibitory concentration (IC50) amounted to 4 nM. That is a single-digit nanomolar value.
As to `O=S(=O)(N[C@H]1CCC[C@@H](n2cnnc2)C1)c1cc(-c2cccc3ccsc23)cc(C(F)(F)F)c1` [Compound 3Aq, 3-(1-benzothien-7-yl)-N-[(1S,3R)-3-(4H-1,2,4-triazol-4-yl)cyclohexyl]-5-(trifluoromethyl)benzenesulfonamide], the half-inhibitory concentration (IC50) turned out to be 7 nM.
The compound `Cc1nncn1[C@@H]1CCC[C@H](NS(=O)(=O)c2ccc(-c3ccc(OCC(F)(F)F)nc3)cc2OC(F)(F)F)C1` [Compound 2Bbe, N-[(1S,3R)-3-(3-methyl-4H-1,2,4-triazol-4-yl)cyclohexyl]-4-[6-(2,2,2-trifluoroethoxy)pyridin-3-yl]-2-(trifluoromethoxy)benzenesulfonamide] displayed an IC50 of 2 nM.
Compound “3-(2-cyclopropylpyrazolo[1,5-a]pyrimidin-7-yl)-N-[(1R,5S)-3,3-difluoro-5-(3-methyl-4H-1,2,4-triazol-4-yl)cyclohexyl]-5-(trifluoromethyl)benzenesulfonamide [Compound 9Af]” registered an IC50 of 5.1 nM.
Compound `O=S(=O)(N[C@H]1CCC[C@@H](n2cnnc2)C1)c1cc(-c2cccc3nccn23)cc(C(F)(F)F)c1` [Compound 3Aaa, 3-imidazo[1,2-a]-pyridin-5-yl-N-[(1S,3R)-3-(4H-1,2,4-triazol-4-yl)cyclohexyl]-5-(trifluoromethyl)benzenesulfonamide] showed an IC50 of 13 nM. This IC50 lies about 2.5-fold higher than the previous one.
In turn, `O=S(=O)(N[C@H]1CCC[C@@H](n2cnnc2)C1)c1c(F)cc(-c2noc(C3CC3)n2)cc1C1CC1` [Compound 2Sa, 2-cyclopropyl-4-(5-cyclopropyl-1,2,4-oxadiazol-3-yl)-6-fluoro-N-[(1S,3R)-3-(4H-1,2,4-triazol-4-yl)cyclohexyl]benzenesulfonamide] gave an IC50 of 8.6 nM.
For the compound `O=S(=O)(N[C@@H]1C[C@H](n2cnnc2)CC(F)(F)C1)c1ccc(-c2ccc(OC(F)(F)F)cc2)c(F)c1` [Compound 2Ga, N-[(1R,5S)-3,3-difluoro-5-(4H-1,2,4-triazol-4-yl)cyclohexyl]-2-fluoro-4′-(trifluoromethoxy)biphenyl-4-sulfonamide], the half-maximal inhibitory concentration (IC50) came out at 10 nM.
`CCc1cc(-c2ccc(OC(C(F)(F)F)C(F)(F)F)cc2)ccc1S(=O)(=O)N[C@H]1CCC[C@@H](n2cnnc2)C1` [Compound 2Aap, 3-ethyl-N-[(1S,3R)-3-(4H-1,2,4-triazol-4-yl)cyclohexyl]-4′-[2,2,2-trifluoro-1-(trifluoromethyl)ethoxy]biphenyl-4-sulfonamide]: the IC50 was determined as 1.7 nM. Compared with the last compound, the IC50 is about 5.9-fold lower.
Compound `O=S(=O)(N[C@@H]1C[C@H](n2cnnc2)CC(F)(F)C1)c1cc(-c2ccc(F)cc2)cc(C(F)(F)F)c1` [3 Cc] registered an IC50 of 36 nM. This IC50 lies about 21-fold higher than the previous one.
In the case of `CCc1cc(-c2ccc(OC(C)C)nc2)ccc1S(=O)(=O)N[C@H]1CCC[C@@H](n2cnnc2C)C1` [Compound 2Abc, 2-ethyl-4-(6-isopropoxypyridin-3-yl)-N-[(1S,3R)-3-(3-methyl-4H-1,2,4-triazol-4-yl)cyclohexyl]benzenesulfonamide] it was 0.5 nM; in that of `O=S(=O)(N[C@H]1CCC[C@@H](n2cnnc2)C1)c1c(C2CC2)cc(-c2noc(C3CC3)n2)cc1C1CC1` [Compound 2Ra, 2,6-dicyclopropyl-4-(5-cyclopropyl-1,2,4-oxadiazol-3-yl)-N-[(1S,3R)-3-(4H-1,2,4-triazol-4-yl)cyclohexyl]benzenesulfonamide], 2.4 nM.
In turn, `CCc1cc(-c2ccc(OCC(F)(F)F)nc2)ccc1S(=O)(=O)N[C@H]1CCC[C@@H](n2cnnc2C)C1` [Compound 2Abe, 2-ethyl-N-[(1S,3R)-3-(3-methyl-4H-1,2,4-triazol-4-yl)cyclohexyl]-4-[6-(2,2,2-trifluoroethoxy)pyridin-3-yl]benzenesulfonamide] yielded an IC50 of 0.2 nM.
The compound `C=C(F)F.CCC(F)(F)c1nc(-c2ccc(S(=O)(=O)N[C@H]3CCC[C@@H](n4cnnc4)C3)c(C3CC3)c2)no1` [2 Kd, 2-cyclopropyl-4-[5-(1,1-difluoropropyl)-1,2,4-oxadiazol-3-yl]-N-[(1S,3R)-3-(4H-1,2,4-triazol-4-yl)cyclohexyl]benzenesulfonamide-1,1-difluoroethylene (1:1)] gave an IC50 of 8.9 nM.
The figure for `O=S(=O)(N[C@H]1CCC[C@@H](n2cnnc2)C1)c1ccc(-c2ccc(OC(F)(F)F)cc2)cc1F` [Compound 2Ig, 3-fluoro-N-[(1S,3R)-3-(4H-1,2,4-triazol-4-yl)cyclohexyl]-4′-(trifluoromethoxy)biphenyl-4-sulfonamide] is 16 nM; for `COc1ncccc1-c1cc(F)cc(S(=O)(=O)N[C@H]2CCC[C@@H](n3cnnc3)C2)c1` [Compound 3Fb, 3-fluoro-5-(2-methoxypyridin-3-yl)-N-[(1S,3R)-3-(4H-1,2,4-triazol-4-yl)cyclohexyl]benzenesulfonamide] it is 9 nM; for `O=S(=O)(N[C@H]1CCC[C@@H](n2cnnc2)C1)c1cc(-c2cccc3ccc(OCC(F)(F)F)nc23)cc(C(F)(F)F)c1` [Compound 3Aad, N-[(1S,3R)-3-(4H-1,2,4-triazol-4-yl)cyclohexyl]-3-[2-(2,2,2-trifluoroethoxy)quinolin-8-yl]-5-(trifluoromethyl)benzenesulfonamide] it is 4 nM.
`O=S(=O)(N[C@H]1CCC[C@@H](n2cnnc2)C1)c1ccc(Oc2ncc(C(F)(F)F)cc2Cl)cc1` [Compound 2Mab, 4-{[3-chloro-5-(trifluoromethyl)pyridin-2-yl]oxy}-N-[(1S,3R)-3-(4H-1,2,4-triazol-4-yl)cyclohexyl]benzenesulfonamide] registered an IC50 of 66 nM. This IC50 is about 16-fold higher than that of the compound before.
`CCc1cc(-c2ccc(F)c(F)c2)ccc1S(=O)(=O)N[C@H]1CCC[C@@H](n2cnnc2)C1` [Compound 2Aw, 3-ethyl-3′,4′-difluoro-N-[(1S,3R)-3-(4H-1,2,4-triazol-4-yl)cyclohexyl]biphenyl-4-sulfonamide] returned an IC50 of 24 nM.
The compound `CCc1cc(-c2ccc(NC(C)=O)cc2)ccc1S(=O)(=O)N[C@H]1CCC[C@@H](n2cnnc2)C1` [Compound 2Aao, N′-[3′-ethyl-4′-({[(1S,3R)-3-(4H-1,2,4-triazol-4-yl)cyclohexyl]amino}sulfonyl)biphenyl-4-yl]acetamide] registered a 50% inhibitory concentration (IC50) of 57 nM. Compared with the last compound, the IC50 is about 2.4-fold higher.
With `CCc1cc(-c2cscn2)ccc1S(=O)(=O)N[C@H]1CCC[C@@H](n2cnnc2)C1` [Compound 2Aay, 2-ethyl-4-(1,3-thiazol-4-yl)-N-[(1S,3R)-3-(4H-1,2,4-triazol-4-yl)cyclohexyl]benzenesulfonamide], the IC50 came to 69 nM. This IC50 and that of the compound before are within 1.5-fold of each other.
The figure for “4-(5-cyclopropyl-1,2,4-oxadiazol-3-yl)-N-[(1R,5S)-3,3-difluoro-5-(4H-1,2,4-triazol-4-yl)cyclohexyl]-3-ethylbiphenyl-4-sulfonamide [Compound 2Cy]” is 7.3 nM.
As to `CCc1cc(-c2ccccc2OC)ccc1S(=O)(=O)N[C@H]1CCC[C@@H](n2cnnc2)C1` [Compound 2As, 3-ethyl-2′-methoxy-N-[(1S,3R)-3-(4H-1,2,4-triazol-4-yl)cyclohexyl]biphenyl-4-sulfonamide], the half-inhibitory concentration (IC50) came out at 16 nM.
In the case of `Cc1nncn1[C@@H]1CCC[C@H](NS(=O)(=O)c2ccc(-c3ccc(OCC(F)(F)F)nc3)c(F)c2)C1` [Compound 2Ff, 3-fluoro-N-[(1S,3R)-3-(3-methyl-4H-1,2,4-triazol-4-yl)cyclohexyl]-4-[6-(2,2,2-trifluoroethoxy)pyridin-3-yl]benzenesulfonamide] it was 1 nM; in that of `O=S(=O)(N[C@H]1CCC[C@@H](n2cnnc2)C1)c1cc(-c2cccc(F)c2)cc(C(F)(F)F)c1` [Compound 3As, 3′-fluoro-N-[(1S,3R)-3-(4H-1,2,4-triazol-4-yl)cyclohexyl]-5-(trifluoromethyl)biphenyl-3-sulfonamide], 3.9 nM.
`CCc1cc(-c2ccc(OC(F)F)cc2)ccc1S(=O)(=O)N[C@H]1CCC[C@@H](n2cnnc2)C1` [Compound 2Ay, 4′-(difluoromethoxy)-3-ethyl-N-[(1S,3R)-3-(4H-1,2,4-triazol-4-yl)cyclohexyl]biphenyl-4-sulfonamide] had an IC50 of 2.5 nM.
As for `CCc1cc(-c2cccc3cccnc23)ccc1S(=O)(=O)N[C@H]1CCC[C@@H](n2cnnc2)C1` [Compound 2Aae, 2-ethyl-4-quinolin-8-yl-N-[(1S,3R)-3-(4H-1,2,4-triazol-4-yl)cyclohexyl]benzenesulfonamide], the concentration for half-maximal inhibition (IC50) amounted to 4.9 nM.
`O=S(=O)(N[C@H]1CCC[C@@H](n2cnnc2)C1)c1cc(-c2cncc3ccccc23)cc(C(F)(F)F)c1` [3 Ay, 3-isoquinolin-4-yl-N-[(1S,3R)-3-(4H-1,2,4-triazol-4-yl)cyclohexyl]-5-(trifluoromethyl)benzenesulfonamide] had a half-maximal inhibitory concentration (IC50) of 20 nM. Compared with the last compound, the IC50 is about 4.1-fold higher.
The compound `CCc1cc(-c2cc(OC)cc(OC)c2)ccc1S(=O)(=O)N[C@H]1CCC[C@@H](n2cnnc2)C1` [Compound 2Au, 3-ethyl-3′,5′-dimethoxy-N-[(1S,3R)-3-(4H-1,2,4-triazol-4-yl)cyclohexyl]biphenyl-4-sulfonamide] registered a half-maximal inhibitory concentration (IC50) of 19 nM. The IC50 values of the last two compounds are within 1.5-fold of each other.
The figure for `CCCCCc1ccc(S(=O)(=O)N[C@H]2CCC[C@@H](n3cnnc3)C2)cc1` [Compound 2Mah, 4-pentyl-N-[(1S,3R)-3-(4H-1,2,4-triazol-4-yl)cyclohexyl]benzenesulfonamide] is 13 nM.
In the case of `CCCCOc1ccc(S(=O)(=O)N[C@H]2CCC[C@@H](n3cnnc3C)C2)cc1F` [Compound 2Fj, 4-butoxy-3-fluoro-N-[(1S,3R)-3-(3-methyl-4H-1,2,4-triazol-4-yl)cyclohexyl]benzenesulfonamide] it was 1.9 nM; in that of `CCc1cc(-c2ccc(OC)nc2)ccc1S(=O)(=O)N[C@H]1CCC[C@@H](n2cnnc2)C1` [Compound 2Ag, 2-ethyl-4-(6-methoxypyridin-3-yl)-N-[(1S,3R)-3-(4H-1,2,4-triazol-4-yl)cyclohexyl]benzenesulfonamide], 9.9 nM; in that of `O=S(=O)(N[C@H]1CCC[C@@H](n2cnnc2)C1)c1cc(-c2ccn3ncnc3c2)cc(C(F)(F)F)c1` [Compound 3Aal, 3-[1,2,4]triazolo[1,5-a]pyridin-7-yl-N-[(1S,3R)-3-(4H-1,2,4-triazol-4-yl)cyclohexyl]-5-(trifluoromethyl)benzenesulfonamide], 42 nM.

Source of the values: patent US9029377B2, “Platelet-activating factor receptor antagonists” (Merck Sharp & Dohme Corp., priority 2009, dated 2015).
